Data published in patent publication US20070213402A1, “Compounds which interact with the thyroid hormone receptor for the treatment of fibrotic disease” (priority 1998, published 2007).

Columns and labels:
collagenase I promoter [1] = experiment: Experiment 1: collagenase I promoter (-73/+63)-luciferase in CV1 cells transfected with pSG5ARF (androgen receptor); format: cell-based, African Green Monkey; settings: for % control (AR): Blank = 100
Source text: (§1) Two plasmid constructs were introduced by standard calcium phosphate precipitation of DNA followed by glycerol shock (Ausubel F M, Brent R, Kingston D D, Moore J G et al Current protocols in molecular biology 1994 Greene Publishing Associates/Wiley-Interscience, New York, N.Y.) using a transformed African Green Monkey kidney cell line (CV1) (Schneikert J, Peterziel H, Defossez P-A, Klocker H, de Launoit Y and Cato A C B Androgen receptor-Ets protein interaction is a novel mechanism for steroid hormone-mediated down-modulation of matrix metalloproteinase expression, Journal of Biological Chemistry. Vol 271(39) (pp 23907-23913), 1996).
(§2) Accordingly, the following two plasmids were included into CV1 cells described above — • (a) Either of GR1 or pSG5ARF containing glucocorticoid or androgen receptor (AR) respectively, both at 2 ug per 5×10^5 cells, driven by the Rous sarcoma virus promoter, and • (b) a plasmid containing the −73/+63 portion of the collagenase I promoter linked to luciferase gene at 8 ug per 5×10^5 cells.
(§3) CPII was compound II above, clobuzarit.

collagenase I promoter [2] = experiment: Experiment 1: collagenase I promoter (-73/+63)-luciferase in CV1 cells transfected with GR1 (glucocorticoid receptor); format: cell-based, African Green Monkey; settings: for % control (GR1): Blank = 100
Source text: as §1, §2, §3

NFκB = experiment: Experiment 3: NFκB-driven 3-EnhTK-Luc reporter in CV1 cells with GR1; format: cell-based, African Green Monkey
Source text: as §1
This experiment was intended to show the effect of compounds I on a mediator of the immune response, nuclear factor—κB (NF-κB).
The following two plasmids were included into CV1 cells described above— • (a) GR1 as described above at 2 ug per 5×10^5 cells, and • (b) a plasmid designated 3-EnhTK-Luc (at 0.5 ug per 5×10^5 cells) which contains a transcription site that is activated by NFκB.
The blank represented the inclusion of these two plasmids alone; the relatively high value was caused by (i) the high level of serum in the culture, and (ii) the associated stress that the cells underwent during the […]—both of which upregulate NFκB. There was also a related relatively low activation of TNF (at 4 ng/ml) above a serum containing blank in the experiment. TNF was tumour necrosis factor alpha.

collagenase I promoter [3] = experiment: Experiment 1: collagenase I promoter (-73/+63)-luciferase in CV1 cells, no receptor plasmid (Empty); format: cell-based, African Green Monkey; settings: no receptor, substance added alone
Source text: as §1, §2, §3

[4] = tested on: collagenase (MMP-1) promoter; experiment: Experiment 4.1: collagenase (MMP-1) promoter (-517/+63)-luciferase in MCF-7 cells, endogenous thyroid hormone receptors; format: cell-based, human; settings: MCF-7, endogenous thyroid hormone receptors, substance added alone
Protocol: (§4) These experiments were intended to identify the receptor through which compounds I might be acting to block collagenase promoter activity.
(§5) Transfection procedure hereinbefore described with CV1 cells was repeated using MCF-7 mammary breast cancer cells derived from pleural effusion from a breast cancer patient. Additionally, each experiment included transfection of a plasmid (at 8 ug per 5×10^5 cells) containing the −517/+63 section of the collagenase (MMP-1) promoter linked to the luciferase gene. TPA was used as above to stimulate activity of the collagenase promoter resulting in luciferase production. Compound II or 3,3,5-triiodo-L-thyronine (T3) was included (both at 10^−8M), the latter being a known ligand for the thyroid hormone receptor.
Experiment 4.1. As MCF-7 cells express endogenous thyroid hormone receptors, only the collagenase promoter plasmid (at 8 ug per 5×10^5 cells) was transfected into the MCF-7 cells.

[5] = tested on: collagenase (MMP-1) promoter; experiment: Experiment 4.2: collagenase (MMP-1) promoter-luciferase in MCF-7 cells with antisense construct for the thyroid receptor; format: cell-based, human; settings: MCF-7 + thyroid receptor antisense, substance added alone
Protocol: as §4, §5
Experiment 4.2. The procedure of Experiment 4.1 was repeated except that a second plasmid, containing 662 bp antisense construct for the thyroid receptor (at 8 ug per 5×10^5 cells) was additionally transfected.

[6] = tested on: collagenase (MMP-1) promoter; experiment: Experiment 4.3: collagenase (MMP-1) promoter-luciferase in MCF-7 cells with transfected chick thyroid hormone receptor; format: cell-based, human; settings: MCF-7 + chick thyroid hormone receptor, substance added alone
Protocol: as §4, §5

[7] = substance added with TPA 75 ng/ml, DHT 10^-7M
[8] = substance added with TPA 75 ng/ml, Dex 10^-7M
[9] = substance added alone, TPA 75 ng/ml

`C[C@]12CCC(=O)C[C@@H]1CC[C@@H]1[C@@H]2CC[C@]2(C)[C@@H](O)CC[C@@H]12` [DHT, dihydroxytestosterone, reference compound] was tested, and the “Raw counts (AR)” value (collagenase I promoter [1]; [7]) was 3711 counts, the “% control (AR)” value (collagenase I promoter [1]; [7]) was 139% and the “collagenase I activation, in words (AR)” value (collagenase I promoter [1]; TPA-stimulated, androgen receptor) was “able to down regulate this activation”.

`C[C@@H]1C[C@H]2[C@@H]3CCC4=CC(=O)C=C[C@]4(C)[C@@]3(F)[C@@H](O)C[C@]2(C)[C@@]1(O)C(=O)CO` [Dex, dexamethazone, reference compound] was tested, and the “Raw counts (GR1)” value (collagenase I promoter [2]; [8]) was 10981 counts, the “% control (GR1)” value (collagenase I promoter [2]; [8]) was 86% and the “collagenase I activation, in words (GR1)” value (collagenase I promoter [2]; TPA-stimulated, glucocorticoid receptor) was “able to down regulate this activation”. For the same molecule, the Raw Counts (NFκB; substance added with TNF 4 ng/ml) was 18525 counts, the “% Control” value (NFκB; substance added with TNF 4 ng/ml, Blank = 100) was 31% and the “inhibitory effect on NFκB transcription, in words” value (NFκB; with TNF) was “marked effect”.

In the case of `CCCCCCCCCCCCCC(=O)O[C@@H]1[C@@H](C)[C@@]2(O)[C@@H](C=C(CO)C[C@]3(O)C(=O)C(C)=C[C@@H]23)[C@@H]2C(C)(C)[C@]12OC(C)=O` [TPA, 12-O—tetradecanoylphorbol-13-acetate, reference compound], the “Raw counts (Empty)” value (collagenase I promoter [3]; luciferase, TPA 75 ng/ml) is reported as 5407 counts, the “% control (Empty)” value (collagenase I promoter [3]; Blank = 100) is reported as 225% and the “% control (GR1)” value (collagenase I promoter [2]; substance added alone) is reported as 448%. For the same molecule, the “Raw counts (GR1)” value (collagenase I promoter [2]; [9]) was 57519 counts, the “% control (AR)” value (collagenase I promoter [1]; substance added alone) was 436% and the “Raw counts (AR)” value (collagenase I promoter [1]; [9]) was 11639 counts. The “% Control” value ([4]; Blank = 100) was 1174.3%, the “Raw Counts” value ([4]; CPII 10^-8M) was 147665 counts and the “% Control” value ([5]; Blank = 100) was 341.2%. For the same molecule, the “Raw Counts” value ([5]; CPII 10^-8M) was 4975 counts, the “% Control” value ([6]; Blank = 100) was 528% and the “Raw Counts” value ([6]; CPII 10^-8M) was 11528 counts.
